Test results taken from US20250051356A1, “RIFABUTIN ANALOGS FOR THE TREATMENT OF DISEASE” (priority 2021, published 2025).
Converted amounts (≈) assume the structure as drawn. Where two headings read alike, the source gives them in different places.

Legend:
Type in all cases: cell-based
[1] = test system: M. abscessus subsp. bolletii CCUG 50184; experiment: MIC against M. abscessus isolate in CAMHB; settings: Mycobacteroides abscessus, CCUG50184
[2] = test system: A. baumannii (HUMC1 strain); experiment: MIC by broth microdilution against A. baumannii in RPMI + 10% FCS; settings: Acinetobacter baumannii; HUMC1 strain; RPMI + 10% FCS; read-out: MIC A. baumannii
[3] = test system: M. abscessus subsp. massiliense CCUG 48898; experiment: MIC against M. abscessus isolate in CAMHB; settings: Mycobacteroides abscessus, CCUG48898
[4] = test system: M. abscessus subsp. abscessus ATCC 19977; experiment: MIC against M. abscessus in Middlebrook 7H9 + ADC; settings: Mycobacteroides abscessus, ATCC19977; ATCC 19977; 7H9 + ADC; read-out: MIC M. abscessus
[5] = test system: M. abscessus subsp. abscessus CCUG 71636; experiment: MIC against M. abscessus isolate in CAMHB
[6] = test system: M. abscessus subsp. abscessus ATCC 19977; experiment: MIC against M. abscessus isolate in CAMHB; settings: Mycobacteroides abscessus, ATCC19977
M. avium (ATCC 25291) = experiment: MIC against M. avium in CAMHB + ADC; settings: Mycobacterium avium, ATCC25291; ATCC 25291; CAMHB + ADC (5%); read-out: MIC M. avium
M. xenopi (ATCC 19250) = experiment: MIC against M. xenopi in CAMHB + ADC; settings: Mycobacterium xenopi, ATCC19250; ATCC 19250; CAMHB + ADC (5%); read-out: MIC M. xenopi
[7] = test system: M. abscessus subsp. abscessus CCUG 71382; experiment: MIC against M. abscessus isolate in CAMHB; settings: Mycobacteroides abscessus, CCUG71382
M. kansasii (ATCC 12478) = experiment: MIC against M. kansasii in CAMHB + ADC; settings: Mycobacterium kansasii, ATCC12478; ATCC 12478; CAMHB + ADC (5%); read-out: MIC M. kansasii
[8] = test system: S. aureus (UAMS-1625 strain); experiment: MIC by broth microdilution against S. aureus; settings: Staphylococcus aureus, read-out: MIC S. aureus
[9] = Mycobacteroides abscessus, CCUG71636; read-out: M. abscessus MIC in CAMHB, abscessus CCUG 71636

SMILES: CO[C@H]1/C=C/OC2(C)Oc3c(C)c(O)c4c(c3C2=O)C2=NC3(CCN(CC(C)C)CC3)NC2=C(NC(=O)/C(C)=C\C=C\[C@H](C)[C@H](O)[C@@H](C)[C@@H](O)[C@@H](C)[C@H](OC(=O)CCCC(=O)N2CCC(N(C)c3ccccc3)CC2)[C@@H]1C)C4=O (stereo partly drawn) [Compound 85]
- MIC [1]: 1 µg/mL (≈ 0.916 µM)
- MIC [2]: 0.03 µg/mL
- MIC [3]: 1 µg/mL (≈ 0.916 µM)
- MIC [4]: 0.125 µg/mL
- MIC [5, 9]: 0.5 µg/mL (≈ 0.458 µM)
- MIC [6]: 1 µg/mL (≈ 0.916 µM)
- MIC (M. avium (ATCC 25291)): 0.25 µg/mL
- MIC (M. xenopi (ATCC 19250)): 0.03 µg/mL
- MIC [7]: 1 µg/mL (≈ 0.916 µM)
- MIC (M. kansasii (ATCC 12478)): 8 ng/mL
- MIC [8]: 0.5 µg/mL (≈ 0.458 µM)

SMILES: CO[C@H]1/C=C/O[C@@]2(C)Oc3c(C)c(O)c4c(c3C2=O)C2=NC3(CCN(CC(C)C)CC3)NC2=C(NC(=O)/C(C)=C\C=C\[C@H](C)[C@H](O)[C@@H](C)[C@@H](O)[C@@H](C)[C@H](OC(=O)CC(=O)NC2CCN(Cc3ccccc3)CC2)[C@@H]1C)C4=O [Compound 90]
- MIC [1]: 0.5 µg/mL (≈ 0.47 µM)
- MIC [2]: 0.016 µg/mL
- MIC [3]: 1 µg/mL (≈ 0.94 µM)
- MIC [4]: 0.25 µg/mL
- MIC ([5]; Mycobacteroides abscessus, CCUG71636, read-out: M. abscessus MIC in CAMHB, abscessus CCUG 71636): 0.125 µg/mL (≈ 0.118 µM)
- MIC [6]: 1 µg/mL (≈ 0.94 µM)
- MIC (M. avium (ATCC 25291)): 0.125 µg/mL
- MIC (M. xenopi (ATCC 19250)): 0.25 µg/mL
- MIC [7]: 1 µg/mL (≈ 0.94 µM)
- MIC (M. kansasii (ATCC 12478)): 8 ng/mL
- MIC [8]: 0.125 µg/mL (≈ 0.118 µM)

SMILES: CO[C@H]1/C=C/O[C@@]2(C)Oc3c(C)c(O)c4c(c3C2=O)C2=NC3(CCN(CC(C)C)CC3)NC2=C(NC(=O)/C(C)=C\C=C\[C@H](C)[C@H](O)[C@@H](C)[C@@H](O)[C@@H](C)[C@H](OC(=O)CC(=O)N2CCN(CC3CCCCC3)CC2)[C@@H]1C)C4=O [Compound 98]
- MIC [1]: 0.25 µg/mL (≈ 0.237 µM)
- MIC [2]: 0.03 µg/mL
- MIC [3]: 0.5 µg/mL (≈ 0.474 µM)
- MIC [4]: 0.125 µg/mL
- MIC [5, 9]: 0.125 µg/mL (≈ 0.118 µM)
- MIC [6]: 0.25 µg/mL (≈ 0.237 µM)
- MIC (M. avium (ATCC 25291)): 0.03 µg/mL
- MIC (M. xenopi (ATCC 19250)): 0.016 µg/mL
- MIC [7]: 0.5 µg/mL (≈ 0.474 µM)
- MIC (M. kansasii (ATCC 12478)): 2 ng/mL
- MIC [8]: 0.5 µg/mL (≈ 0.474 µM)

SMILES: CO[C@H]1/C=C/O[C@@]2(C)Oc3c(C)c(O)c4c(c3C2=O)C2=NC3(CCN(CC(C)C)CC3)NC2=C(NC(=O)/C(C)=C\C=C\[C@H](C)[C@H](O)[C@@H](C)[C@@H](O)[C@@H](C)[C@H](OC(=O)CC(=O)N2CCCN(C)CC2)[C@@H]1C)C4=O [Compound 120]
- MIC [2]: 0.06 µg/mL
- MIC [4]: 0.25 µg/mL
- MIC (M. avium (ATCC 25291)): 2 µg/mL
- MIC (M. xenopi (ATCC 19250)): 1 µg/mL
- MIC (M. kansasii (ATCC 12478)): 250 ng/mL
- MIC [8]: 0.06 µg/mL (≈ 0.0608 µM)

SMILES: CO[C@H]1/C=C/O[C@@]2(C)Oc3c(C)c(O)c4c(c3C2=O)C2=NC3(CCN(CC(C)C)CC3)NC2=C(NC(=O)/C(C)=C\C=C\[C@H](C)[C@H](O)[C@@H](C)[C@@H](O)[C@@H](C)[C@H](OC(=O)CC(=O)N2CCCN(c3ccccn3)CC2)[C@@H]1C)C4=O [Compound 122]
- MIC [2]: ≤ 0.002 µg/mL
- MIC [4]: 0.125 µg/mL
- MIC (M. avium (ATCC 25291)): 0.125 µg/mL
- MIC (M. xenopi (ATCC 19250)): 0.03 µg/mL
- MIC (M. kansasii (ATCC 12478)): 2 ng/mL
- MIC [8]: 0.06 µg/mL (≈ 0.0571 µM)

SMILES: CO[C@H]1/C=C/O[C@@]2(C)Oc3c(C)c(O)c4c(c3C2=O)C2=NC3(CCN(CC(C)C)CC3)NC2=C(NC(=O)/C(C)=C\C=C\[C@H](C)[C@H](O)[C@@H](C)[C@@H](O)[C@@H](C)[C@H](OC(=O)CC(=O)N2CCCN(c3cccc(C(F)(F)F)n3)CC2)[C@@H]1C)C4=O [Compound 123]
- MIC [2]: 0.25 µg/mL
- MIC [4]: 0.25 µg/mL
- MIC (M. avium (ATCC 25291)): 0.06 µg/mL
- MIC (M. xenopi (ATCC 19250)): 0.125 µg/mL
- MIC (M. kansasii (ATCC 12478)): 8 ng/mL
- MIC [8]: 0.5 µg/mL (≈ 0.447 µM)
